The values that follow come from ChEMBL document CHEMBL1126993, “Synthesis of oxazolidinone phospholipid analogue as a new inhibitor of phospholipase A2” (Bioorg Med Chem Lett, 1993).

In test [1] the target is T1, Phospholipase A2 (Homo sapiens, UniProt P04054). The test is described as follows: Tested for binding affinity of compound against Phospholipase A2 (PLA2). The following applies: Gloydius blomhoffi.
Target sequence in this assay (P04054 23-148 limits assumed): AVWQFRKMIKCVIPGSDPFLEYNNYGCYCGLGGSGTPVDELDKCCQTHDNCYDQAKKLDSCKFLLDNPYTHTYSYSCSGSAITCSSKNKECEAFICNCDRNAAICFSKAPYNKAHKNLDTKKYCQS
Test [2] deals with T1, Phospholipase A2. The test is described as follows: Tested for inhibitory activity of compound against Phospholipase A2 (PLA2); showed no significant inhibitory activity. Also noted: species or system Gloydius blomhoffi.
Target sequence in this assay (P04054 whole entry): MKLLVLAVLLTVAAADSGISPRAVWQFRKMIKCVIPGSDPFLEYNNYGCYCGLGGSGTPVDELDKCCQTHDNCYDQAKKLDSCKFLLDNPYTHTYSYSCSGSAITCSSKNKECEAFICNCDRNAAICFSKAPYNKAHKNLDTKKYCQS

As for `CCCCCCCCCCCC(=O)N[C@H](CCCC)COP(=O)([O-])OCC[N+](C)(C)C`, the 1/Ki at Phospholipase A2 [1] is 270000 M⁻¹.

`CCCCCCCCCCCC(=O)N1C(=O)OC[C@@H]1COP(=O)([O-])OCC[N+](C)(C)C` registered a 1/Ki at Phospholipase A2 [1] of 45000 M⁻¹.

Take `CCCCCCCCCCCC(=O)N1C(=O)OC[C@H]1COP(=O)([O-])OCC[N+](C)(C)C`: the IC50 result on Phospholipase A2 [2] is “Not Active”.
